Data taken from patent US7476511B2, “Method of detecting and analyzing paclitaxel-mimetic compounds” (priority 2001, dated 2009).
Like-named read-outs stand apart in the source and are kept apart here.

Tests used:
[1] = test system: paclitaxel binding site of microtubules; experiment: Competition test: displacement of Flutax-2 from microtubules, fluorescence anisotropy in microplate; parameters: species or system bovine; conditions: for equilibrium binding constant to microtubules (numerical analysis of displacement isotherms) / displacement of Flutax-2 / inhibition of the anisotropy of microtubule Flutax-2: 50 nM Flutax-2/50 nM microtubule sites; for equilibrium binding constant to microtubules (numerical analysis of displacement isotherms): 25° C., mean of several determinations; for equilibrium constant K, best fit of competition isotherm (FIG. 2): GAB-GDP buffer at 25° C., 50 nM Flutax-2, 50 nM sites
Description: Using Flutax-2 as a reference probe for the binding site to paclitaxel, the binding of other non-fluorescent ligands which displace Flutax-2 from the microtubules (see FIG. 1) can easily be measured by the changes in […] fluorescence properties in a competition test. The change of fluorescence anisotropy, which was analysed in 96-well plates with a microplate reader, was used. […] Baccatine III is equivalent to the taxane ring system, in which the group C-13 OH substitutes the paclitaxel side chain (see chemical structures in FIG. 2). The C-13 side chain has previously been considered as an essential determinant for recognition of paclitaxel.
Tubulin from bovine brain was purified and stored, and its concentration was measured as has been described (Andreu, J. M. et al.). Prior to its use it was balanced in 10 mM sodium phosphate, 1 mM EGTA, 0.1 mM GTP, 3.5M glycerol pH 6.8, with a Sephadex G-25 gravity column used cold, and it was centrifuged cold for 10 min at 50,000 in a TLA 100.4 rotor (Beckman) cold. The 50 μM tubulin was made 6 mM in MgCl2 (in other words, glycerol assembly buffer GAB, final pH 6.5) and 1 mM GTP, it was assembled in microtubules at 37° C. and these were gently cross-linked with 20 mM glutaraldehyde, the reaction being stopped with NaBH4 as has been described (Diaz, J. F. et al.). […] The cross-linked microtubules were dialysed against GAB-0.1 mM nucleotide (GTP or GDP) for more than 16 h, cold, in dialysis cassettes (Pierce) and were conserved frozen drop by drop in liquid nitrogen, or at 4° C. with 0.05% of sodium azide. This conservation method for the cross-linked microtubules by means of dialysis against a conservation and cryopreservation buffer is claimed in the present invention.
These competitive measurements were made with the polarisation plate reader. A solution of known concentrations of binding sites of microtubule and Flutax-2, both close to 50 nM, in GAB-GDP buffer, was freshly prepared starting from the concentrated reserves of cross-linked microtubules and Flutax-2. It was dispensed in aliquots of 200 μL (final volume) at room temperature in 96-well plates (Costar cat. No. 3599, the wells at the edges were not used). […] The ligands to test were added in small volumes of DMSO (concentration of final DMSO 2% v/v) in order to make the desired duplicated concentrations. A check was also made that the paclitaxel was not adsorbed onto the plate during the test, using ^3H-paclitaxel and a scintillation counter. The wells without protein and without Flutax-2 were included for calibration and background measurements respectively (see anisotropy measurements, above). The plates were stirred by rotation for 10 minutes and were measured twice within 30-90 minutes following balancing at 25° C. in the microplate reader. The anisotropy data of Flutax-2 was calculated with the evaluation software (BMG) and was traced against the total concentration of the competitor.
With the aim of measuring the binding affinity of a ligand (L) which displaces the reference ligand Flutax-2 from its microtubule binding site (S), unitary stoichiometry was assumed, with the fractional binding of Flutax-2 starting from the anisotropy being determined as [F]b/[S]0=[F]0(r−rmin)/[S]0(rmax−rmin) and the following expressions were applied K(F)=[SF]/[S] [F] [9] K(B)=[SB]/[S] [B] [10] [F]=[F]0−[SF] [11] [L]=[L]0−[SL] [12]

[2] = Description: Standard concentrated solutions were prepared and were kept at −20° C. in a dry atmosphere. The paclitaxel (from the National Cancer Institute, Bethesda, Md.) was measured spectroscopically at 273 nm following dilution in methanol, using an extinction coefficient of 1,700 M^−1 cm^−1 (Diaz, J. F. and Andreu, J. M.) ^3H-paclitaxel (4 Ci mmol^−1) was obtained from Moravek Biochemicals (Brea, Calif.), Docetaxel (Taxotere) was supplied by Rhône-Poulenc Rorer (Antony, France). […] The methyl ester of the C-13 side chain of paclitaxel was supplied by E. Baloglu and D. G. I. Kingston of the Virginia Polytechnic Institute (Blacksburg, Va.).
[3] = test system: paclitaxel binding site of microtubules; experiment: Binding of Flutax-2 to cross-linked microtubules by fluorescence anisotropy; parameters: species or system bovine; conditions: 10 μM paclitaxel
Description: The intensity of fluorescence of Flutax-2 changes very little with the binding to microtubules. There is a small change in the excitation maximum from 494 nm to 495 nm (isosbestic point at 500 nm ) and a blue shift in emission from 523 nm to 520 nm (not shown here; isosbestic point at 525 nm; Diaz, J. F. et al.). […] The excitation anisotropy spectrum of a 50 nM solution of microtubule sites/Flutax-2 was compared with the spectrum of a similar solution in which the binding sites were blocked by an excess of paclitaxel and of free Flutax-2. […] The anisotropy values determined for the 495 nm band (emission 520 nm; GAB buffer containing glycerol, 25° C.) were: free Flutax-2 (50 nm ), rmin=0.055; in the presence of microtubules blocked with paclitaxel, r=0.060; Flutax-2 specifically bound to the microtubules, rmax=0.29 (the last was determined by valuation of 50 nm Flutax-2 with growing concentrations of microtubules). These changes are consistent with a strong immobilisation of the fluorophore by the binding. […]
Tubulin from bovine brain was purified and stored, and its concentration was measured as has been described (Andreu, J. M. et al.). […]
Fluorescence spectra were obtained corrected with a Fluorolog-3-221 photon count instrument (Jobin Yvon-Spex, Longlumean, France), with an emission bandwidth of 5 nm and excitation of […] at 25° C. […] The multiple measurements of anisotropy were made with a PolarStar microplate reader (BMG Labtechnologies, Offenburg, Germany) at 25° C. The solutions were excited with 200 pulses of vertically polarised light (band-pass filter 485-P, 480-492 nm ) and the emission was simultaneously analysed with vertical and horizontal polarisation filters (band-pass 520-P, 515-550 nm ). […] The values of well blanks with microtubules and without Flutex-2 were subtracted from the values of fluorescence intensity (the blanks typically represented less than 4% of the measurement). […]

Compound | equilibrium binding constant to microtubules (numerical analysis of displacement isotherms) [1] | equilibrium constant K, best fit of competition isotherm (FIG. 2) [1] | ratio of affinities of docetaxel to paclitaxel ([1]; on the basis of the individual experiments) | displacement of Flutax-2 / inhibition of the anisotropy of microtubule Flutax-2 [1] | total concentrations needed for inhibition relative to paclitaxel ([1]; entire inhibition of anisotropy) | solubility ([2]; pH 6.5) | K of simulated low affinity binding (line through data, FIG. 2) ([1]; simulation, data similar to controls) | solubility [2] | cancellation of the binding of Flutax-2 to microtubules [3]
CC(=O)O[C@@]12CO[C@@H]1C[C@H](O)[C@@]1(C)C(=O)[C@H](O)C3=C(C)[C@@H](OC(=O)[C@H](O)[C@@H](NC(=O)OC(C)(C)C)c4ccccc4)C[C@@](O)([C@@H](OC(=O)c4ccccc4)[C@H]21)C3(C)C [docetaxel, Docetaxel] | (6.0±2.3)×10^7 M^−1 | 8e+07 M⁻¹ | 2.7±0.3 |  |  |  |  |  | 
CC(=O)O[C@H]1C(=O)[C@@]2(C)[C@H]([C@H](OC(=O)c3ccccc3)[C@]3(O)C[C@H](O)C(C)=C1C3(C)C)[C@]1(OC(C)=O)CO[C@@H]1C[C@@H]2O [baccatine III, Baccatine III] | 1.5±0.5)×10^5 M^−1 | 150000 M⁻¹ |  | entirely inhibited | approximately 200 times | soluble at the concentrations used |  |  | 
COC(=O)C(O)C(NC(=O)c1ccccc1)c1ccccc1 (stereo not drawn) [methyl ester of the C-13 side chain, methyl ester of the C-13 side chain of paclitaxel] | < 10^3 M^−1 |  |  | inactive |  |  | 700 M⁻¹ | ≥ 750 µM | 
CC(=O)O[C@H]1C(=O)[C@@]2(C)[C@H]([C@H](OC(=O)c3ccccc3)[C@]3(O)C[C@H](OC(=O)[C@H](O)[C@@H](NC(=O)c4ccccc4)c4ccccc4)C(C)=C1C3(C)C)[C@]1(OC(C)=O)CO[C@@H]1C[C@@H]2O [paclitaxel] | (3.7±1.5)×10^7 M^−1 | 3.2e+07 M⁻¹ |  |  |  |  |  |  | entirely annulled
